Reference: patent US5952501A, “Certain tricyclic substituted diazabicylo[3.2.1] octane derivatives” (priority 1995, dated 1999)
Where two headings read alike, the source gives them in different places.

Tests used:
[1] = system: apomorphine-induced stereotypy; assay: Antagonism of Apomorphine-Induced Stereotypy; conditions: Rattus norvegicus, sc, 1 h, read-out: ED50 Stereotypy
[2] = system: amphetamine-induced hyperactivity; conditions: Rattus norvegicus, sc, 1 h, read-out: ED50 Hyperactivity
[3] = system: stereotypy:hyperactivity; assay: stereotypy:hyperactivity ED50 ratio (typical versus atypical neuroleptic profile); format: in vivo, male Sprague-Dawley rats; conditions: for neuroleptic profile: in words, stereotypy versus hyperactivity models; for Ratio: stereotypy:hyperactivity ED50 ratio, greater than ten considered clozapine like atypical
Text: The ratios of the ED50 's determined in the assay systems described above are predictive of typical versus atypical profiles for potential neuroleptic candidates.
A compound encompassed within the disclosure of French patent application No. 71.27825 was synthesized and evaluated using the assays described above. This prior art compound is designated Compound A for purposes of comparison and has the formula: [drawing 12]

[4] = cited from earlier work

## CN1CCN(C2=Nc3cc(Cl)ccc3Nc3ccccc32)CC1 [Clozapine]
[1]
  ED50: 26.9 mg/kg
[2]
  ED50: 1.49 mg/kg
[3]
  neuroleptic profile: clozapine-like atypical antipsychotic profiles
  Ratio: 18
[4]; in words, than classical neuroleptics, background
  incidence of extrapyramidal side effects: lesser incidence of extrapyramidal side effects than classical neuroleptics

## CN1C2CCC1CN(C1Cc3cc(Cl)ccc3Oc3ccccc31)C2.O=C(O)/C=C\C(=O)O (stereo not shown) [Compound 1, 3-(2-Chloro-10,11-dihydro-dibenzo[b,f]oxepin-10-yl)-8-methyl-3,8-diazabicyclo(3.2.1)octane monomaleate]
[1]
  ED50: > 40 mg/kg
[2]
  ED50: 0.84 mg/kg
[3]
  Ratio: > 48

## Cc1ccc2c(c1)CC(N1CC3CCC(C1)N3C)c1ccccc1O2.O=C(O)/C=C\C(=O)O (stereo not shown) [Compound 2, 3-(2-Methyl-10,11-dihydro-dibenzo[b,f]oxepin-10-yl)-8-methyl-3,8-diazabicyclo(3.2.1)octane monomaleate]
[1]
  ED50: 12.7 mg/kg
[2]
  ED50: 0.41 mg/kg
[3]
  Ratio: 31

## CN1C2CCC1CN(C1Cc3cc(Br)ccc3Oc3ccccc31)C2.O=C(O)/C=C\C(=O)O (stereo not shown) [Compound 3, 3-(2-Bromo-10,11-dihydro-dibenzo[b,f]oxepin-10-yl)-8-methyl-3,8-diazabicyclo(3.2.1)octane monomaleate]
[1]
  ED50: > 22 mg/kg
[2]
  ED50: 2.15 mg/kg
[3]
  Ratio: > 10

## O=C(CCCN1CCC(O)(c2ccc(Cl)cc2)CC1)c1ccc(F)cc1 [Haloperidol]
[1]
  ED50: 0.036 mg/kg
[2]
  ED50: 0.038 mg/kg
[3]
  Ratio: 0.94

## CN1C2CCC1CN(C1Cc3ccccc3Oc3ccc(Cl)cc31)C2 (stereo not shown) [Prior Art Cpd A]
[1]
  ED50: 0.69 mg/kg
[2]
  ED50: 0.22 mg/kg
[3]
  neuroleptic profile: typical neuroleptic profile which is comparable to conventional neuroleptic agents
  Ratio: 3.1

## CN1CCN([C@@H]2Cc3ccccc3Sc3ccc(Cl)cc32)CC1 [R-Octoclothepin]
[1]
  ED50: 0.18 mg/kg
[2]
  ED50: 0.8 mg/kg
[3]
  Ratio: 4.4

## CCN1CCC[C@H]1CNC(=O)c1c(O)c(Cl)cc(Cl)c1OC [Raclopride]
[1]
  ED50: 0.044 mg/kg
[2]
  ED50: 0.048 mg/kg
[3]
  Ratio: 0.92

## CCN1CCCC1CNC(=O)c1cc(S(N)(=O)=O)ccc1OC (stereo not shown) [sulpiride]
[4]; in vivo
  incidence of extrapyramidal side effects: lesser incidence of extrapyramidal side effects than classical neuroleptics
